The values below are quoted from earlier work in patent publication US20040115266A1, “Oral itraconazole formulations and methods of making the same” (priority 2004, published 2004).

Some results are limits rather than exact numbers.

As for `CCC(C)n1ncn(-c2ccc(N3CCN(c4ccc(OCC5COC(Cn6cncn6)(c6ccc(Cl)cc6Cl)O5)cc4)CC3)cc2)c1=O` (single isomer, unassigned; (+)) [Itraconazole, (+)-cis-4-[4-[4-[4-[[2-(2,4-dichlorophenyl)-2-(1H-1,2,4-triazol-1-ylmethyl)-1,3-dioxolan-4-yl]methoxy]phenyl]-1-piperazinyl]phenyl]-2,4-dihydro-2-(1-methylpropyl)-3H-1,2,4-triazol-3-one], the “0.1 N Hydrochloric acid solubility” value (0.1 N Hydrochloric acid) is less than 6 micrograms per milliliter. Where the note is “water”, the water solubility result is reported as “less than 1 microgram per milliliter”.
